Experimental data taken from ChEMBL document CHEMBL3352453, “Inhibitory potency of flavonoid derivatives on influenza virus neuraminidase” (Bioorg Med Chem Lett, 2014).

Assays:
[1] = Inhibition of influenza B virus (B/Brisbane/60/2008) neuraminidase using MUNANA substrate pre-incubated for 30 mins before substrate addition by fluorometric assay
[2] = Cytotoxicity against MDCK cells; type: cell-based, Canis lupus familiaris; details: dog
[3] = Selectivity index, ratio of CC50 for MDCK cells to IC50 for influenza A virus (A/Perth/16/2009(H3N2)); type: functional

Row | Structure (SMILES) | IC50 [1] | CC50 [2] | Ratio CC50/IC50 [3]
1 | C[C@@H]1O[C@@H](Oc2c(-c3ccc(O)c(O)c3)oc3cc(O)cc(O)c3c2=O)[C@H](O)[C@H](O)[C@H]1O [QUERCITRIN] | 112 µM | > 446 µM | >4.1
2 | O=c1c(O[C@@H]2O[C@H](CO)[C@H](O)[C@H](O)[C@H]2O)c(-c2ccc(O)c(O)c2)oc2cc(O)cc(O)c12 [HYPEROSIDE] | 88.1 µM | > 431 µM | >6.9
3 | O=c1c(O[C@@H]2O[C@H](CO)[C@@H](O)[C@H](O)[C@H]2O)c(-c2ccc(O)c(O)c2)oc2cc(O)cc(O)c12 [ISOQUERCETIN] | 384 µM | > 431 µM | >1.2
4 | C[C@@H]1O[C@@H](OC[C@H]2O[C@@H](Oc3c(-c4ccc(O)c(O)c4)oc4cc(O)cc(O)c4c3=O)[C@H](O)[C@@H](O)[C@@H]2O)[C@H](O)[C@H](O)[C@H]1O [RUTIN] | 105 µM | > 328 µM | >3.4
5 | O=c1c(O)c(-c2ccc(O)cc2)oc2cc(O)cc(O)c12 [KAEMPFEROL] | 90.8 µM | 581 µM | 6.8
6 | CCOC(=O)C1=C[C@@H](OC(CC)CC)[C@H](NC(C)=O)[C@@H](N)C1 [OSELTAMIVIR] | 0.0454 µM |  | 
7 | O=c1cc(-c2ccc(O)c(O)c2)oc2cc(O[C@@H]3O[C@H](CO)[C@@H](O)[C@H](O)[C@H]3O)cc(O)c12 [GALUTEOLIN] | 57.2 µM | > 446 µM | >6.7
